Key:
[1] = tested on: MCF-7 breast cancer cells; assay: Cell viability (MTT) assay, MCF-7; format: cell-based; conditions: for anti-proliferation activity on MCF-7 compared with GAA: MCF-7, 48 h
Protocol: MCF-7 is a commonly used tumor cell line.
(§1) The cell lines present in this study were obtained from Procell Life Science & Technology Co. Ltd. MCF-7, HepG2 and SJSA-1 cells were cultured in DMEM medium (DMEM, Gibco) supplemented with 10% fetal bovine serum (FBS, Gibco), 1% penicillin-streptomycin (Hyclone) at 37℃ in a humid environment with 5% CO2. HK-2 cells were cultured in DMEM/F12 (1:1) medium and placed in incubators in the same environment.
(§2) Cell viability was determined by MTT assay. MCF-7, HepG2, SJSA-1 and HK-2 cells (6 × 10^3 cells /well) were seeded in 96-well plates with serum-free medium for 24 h. […] After 48 or 72 h, 10 μL MTT (5 mg/mL, Beyotime) was added and incubated at 37 °C for 4 h. Then 100 μL of lysate was added. After complete dissolution of the crystal, the absorbance was measured at 540 nm and expressed as the average percentage of absorbance between treated and control cells. The value for control cells was set at 100%. Cell survival rate was calculated as the ratio of the absorbance of the cells and negative control after minus the blank absorbance respectively.

HepG2 cells = assay: Cell viability (MTT) assay, HepG2; format: cell-based; conditions: for anti-proliferation activity on HepG2 (in words): HepG2, 48 h
Protocol: (§3) To investigate the selectivity of these derivatives towards different tumor cell lines, we also selected HepG2 and osteosarcoma cell line SJSA-1 cells to evaluate the anti-proliferation activity of the derivatives. […] Except for compounds A2 and A11, the effects of other compounds on SJSA-1 were not strong.
as §1, §2

[2] = tested on: osteosarcoma cell line SJSA-1; assay: Cell viability (MTT) assay, SJSA-1; format: cell-based
Protocol: as §3, §1, §2

HK-2 cells = assay: Cell viability (MTT) assay, HK-2 normal cells (cytotoxicity); format: cell-based
Protocol: as §1, §2

SMILES | Viability of Cells (% of Control) ([1]; 25 µM) | Viability of Cells (% of Control) ([1]; 50 µM) | Viability of Cells (% of Control) ([1]; 100 µM) | Viability of Cells (% of Control) (HepG2 cells; 25 µM) | Viability of Cells (% of Control) (HepG2 cells; 50 µM) | melting point | Viability of Cells (% of Control) ([2]; 50 µM) | Viability of Cells (% of Control) ([2]; 100 µM) | Viability of Cells (% of Control) (HK-2 cells; 50 µM) | Viability of Cells (% of Control) (HK-2 cells; 100 µM) | toxicity to HK2 cells (in words) (HK-2 cells) | inhibition at 50 µM ([1]; Homo sapiens, MCF7, MCF-7, 50 µM, 48 h, read-out: inhibition rate of MCF-7) | anti-proliferation activity on MCF-7 compared with GAA [1] | anti-proliferation activity on HepG2 (in words) (HepG2 cells)
CCCCNC(=O)[C@H](C)CC(=O)C[C@@H](C)[C@H]1C[C@H](O)[C@@]2(C)C3=C(C(=O)C[C@]12C)[C@@]1(C)CCC(=O)C(C)(C)[C@@H]1C[C@@H]3O [Compound A1, (n-butyl)-(7β,15α,25R)-7,15-Dihydroxy-3,11,23-Trioxolanost-8-en-26-oic Amide] | 96.6 ± 6.2 % of Control | 114.3 ± 1.2 % of Control | 78.7 ± 3.4 % of Control | 90.5 ± 1.1 % of Control | 87.2 ± 3.1 % of Control | 120.7 to 121.5 °C | 87.9 ± 0.9 % of Control | 74.0 ± 3.8 % of Control | – | – | – | – | – | –
Cc1ccc(NC(=O)[C@H](C)CC(=O)C[C@@H](C)[C@H]2C[C@H](O)[C@@]3(C)C4=C(C(=O)C[C@]23C)[C@@]2(C)CCC(=O)C(C)(C)[C@@H]2C[C@@H]4O)cc1 [Compound A3, (4-Methylphenyl)-(7β,15α,25R)-7,15-Dihydroxy-3,11,23-Trioxolanost-8-en-26-oic Amide] | 110.9 ± 2.2 % of Control | 114.3 ± 1.2 % of Control | 78.7 ± 3.9 % of Control | 90.1 ± 1.1 % of Control | 76.3 ± 1.1 % of Control | 174.3 to 175.5 °C | 85.3 ± 1.1 % of Control | 83.3 ± 3.0 % of Control | – | – | – | – | – | –
C[C@H](CC(=O)C[C@@H](C)[C@H]1C[C@H](O)[C@@]2(C)C3=C(C(=O)C[C@]12C)[C@@]1(C)CCC(=O)C(C)(C)[C@@H]1C[C@@H]3O)C(=O)Nc1ccc(Cl)cc1 [Compound A4, (4-Chlorophenyl)-(7β,15α,25R)-7,15-Dhydroxy-3,11,23-Trioxolanost-8-en-26-oic Amide] | 116.4 ± 4.8 % of Control | 120.7 ± 2.0 % of Control | 108.9 ± 1.1 % of Control | 87.7 ± 1.9 % of Control | 72.0 ± 1.9 % of Control | 184.9 to 185.3 °C | 83.9 ± 5.4 % of Control | 57.4 ± 4.2 % of Control | – | – | – | – | – | –
Cc1ccc(CNC(=O)[C@H](C)CC(=O)C[C@@H](C)[C@H]2C[C@H](O)[C@@]3(C)C4=C(C(=O)C[C@]23C)[C@@]2(C)CCC(=O)C(C)(C)[C@@H]2C[C@@H]4O)cc1 [Compound A5, (4-methylbenzyl)-(7β,15α,25R)-7,15-Dihydroxy-3,11,23-Trioxolanost-8-en-26-oic Amide] | 115.0 ± 2.9 % of Control | 107.4 ± 6.7 % of Control | 99.5 ± 1.0 % of Control | 78.5 ± 3.0 % of Control | 69.1 ± 1.9 % of Control | 208.7 to 209 °C | 75.0 ± 2.6 % of Control | 64.5 ± 1.2 % of Control | 110.4 ± 13.1 % of Control | 97.0 ± 8.8 % of Control | – | – | – | –
C[C@H](CC(=O)C[C@@H](C)[C@H]1C[C@H](O)[C@@]2(C)C3=C(C(=O)C[C@]12C)[C@@]1(C)CCC(=O)C(C)(C)[C@@H]1C[C@@H]3O)C(=O)NCc1ccc(F)cc1 [Compound A6, (4-Fluorobenzyl)-(7β,15α,25R)-7,15-Dihydroxy-3,11,23-Trioxolanost-8-en-26-oic Amide] | 77.1 ± 4.2 % of Control | – | 26.4 ± 1.5 % of Control | 84.0 ± 0.8 % of Control | 76.6 ± 1.6 % of Control | 178.4 to 179.3 °C | 92.6 ± 3.1 % of Control | 65.8 ± 3.2 % of Control | 89.6 ± 6.9 % of Control | 80.2 ± 9.0 % of Control | some toxicity | 63.6% | significant anti-proliferation activities | weaker anti-proliferation effect
C[C@H](CC(=O)C[C@@H](C)[C@H]1C[C@H](O)[C@@]2(C)C3=C(C(=O)C[C@]12C)[C@@]1(C)CCC(=O)C(C)(C)[C@@H]1C[C@@H]3O)C(=O)NCc1ccc(Cl)cc1 [Compound A7, (4-Chlorobenzyl)-(7β,15α,25R)-7,15-Dihydroxy-3,11,23-Trioxolanost-8-en-26-oic Amide] | 73.5 ± 4.0 % of Control | – | 75.1 ± 13.2 % of Control | 73.8 ± 1.2 % of Control | 53.4 ± 1.0 % of Control | 188.6 to 189.4 °C | 81.6 ± 2.8 % of Control | 77.1 ± 4.6 % of Control | 86.2 ± 3.7 % of Control | 81.3 ± 3.3 % of Control | some toxicity | – | significant anti-proliferation activities | potent anti-proliferation activity
C[C@H](CC(=O)C[C@@H](C)[C@H]1C[C@H](O)[C@@]2(C)C3=C(C(=O)C[C@]12C)[C@@]1(C)CCC(=O)C(C)(C)[C@@H]1C[C@@H]3O)C(=O)NCc1cc(Cl)cc(Cl)c1 [Compound A8, (3,5-Dichlorobenzyl)-(7β,15α,25R)-7,15-Dihydroxy-3,11,23-Trioxolanost-8-en-26-oic Amide] | 63.3 ± 8.3 % of Control | – | 39.4 ± 5.8 % of Control | 54.2 ± 2.0 % of Control | 48.1 ± 1.5 % of Control | 182.6 to 183.8 °C | 92.4 ± 1.4 % of Control | 80.4 ± 4.7 % of Control | 107.8 ± 14.3 % of Control | 91.0 ± 2.4 % of Control | – | – | significant anti-proliferation activities | potent anti-proliferation activity
C[C@H](CC(=O)C[C@@H](C)[C@H]1C[C@H](O)[C@@]2(C)C3=C(C(=O)C[C@]12C)[C@@]1(C)CCC(=O)C(C)(C)[C@@H]1C[C@@H]3O)C(=O)NC1Cc2ccccc2C1 [Compound A9, (2,3-Dihydro-1H-inden-2-yl)-(7β,15α,25R)-7,15-Dihydroxy-3,11,23-Trioxolanost-8-en-26-oic Amide] | 87.5 ± 7.6 % of Control | 53.3 ± 6.9 % of Control | 40.3 ± 7.8 % of Control | 64.2 ± 1.4 % of Control | 52.4 ± 2.1 % of Control | 199.7 to 200.3 °C | 99.2 ± 2.6 % of Control | 89.6 ± 3.8 % of Control | 79.0 ± 2.9 % of Control | 80.1 ± 2.8 % of Control | some toxicity | – | significant anti-proliferation activities | potent anti-proliferation activity
C[C@H](CC(=O)C[C@@H](C)[C@H]1C[C@H](O)[C@@]2(C)C3=C(C(=O)C[C@]12C)[C@@]1(C)CCC(=O)C(C)(C)[C@@H]1C[C@@H]3O)C(=O)N1CCN(C)CC1 [Compound A13, (4-Methylpiperazin-1-yl)-(7β,15α,25R)-7,15-Dihydroxy-3,11,23-Trioxolanost-8-en-26-oic Amide] | 113.6 ± 2.1 % of Control | 107.3 ± 9.1 % of Control | 102.7 ± 3.5 % of Control | 104.4 ± 2.0 % of Control | 99.3 ± 4.9 % of Control | 173.2 to 174.9 °C | 87.6 ± 3.8 % of Control | 77.6 ± 3.5 % of Control | – | – | – | – | – | –
CCN1CCN(C(=O)[C@H](C)CC(=O)C[C@@H](C)[C@H]2C[C@H](O)[C@@]3(C)C4=C(C(=O)C[C@]23C)[C@@]2(C)CCC(=O)C(C)(C)[C@@H]2C[C@@H]4O)CC1 [Compound A14, (4-Ethylpiperazin-1-yl)-(7β,15α,25R)-7,15-Dihydroxy-3,11,23-Trioxolanost-8-en-26-oic Amide] | 106.2 ± 4.7 % of Control | 102.2 ± 5.9 % of Control | 96.2 ± 5.0 % of Control | 95.6 ± 1.9 % of Control | 99.3 ± 0.2 % of Control | 198.5 to 199.4 °C | 70.4 ± 1.6 % of Control | 47.3 ± 2.1 % of Control | – | – | – | – | – | –
